Where two headings read alike, the source gives them in different places. Where a SMILES comes first, the peptide text is derived from it. The star is where a group is joined. Cbz = O=C(OCc1ccccc1)*
Tests used:
Format in all cases: cell-based
[1] = test system: latently HIV-1 infected CA5 T cells; details: for priming effect on HIV-1 reactivation by sub-optimal dose of HRF: CA5 cells pretreated with increasing concentrations; for effect of higher concentrations on HIV-1 reactivation triggered by HRF or TNF-α: correlated with high levels of cytotoxicity
Procedure: (§1) Infection levels in the cell cultures were monitored by flow cytometric analysis of EGFP expression. Flow cytometric analysis was performed on a GUAVA EasyCyte (Millipore; Billerica, Mass.), or a LSRII (Becton & Dickinson; Franklin Lakes, N.J.).
Bacterial growth. Bacteria from various sources were isolated on TSA II agar plates containing 5% sheep blood. Bacterial isolates were then grown in RPMI 1640 medium supplemented with 10% FBS. After two days of incubation at 37° C. bacteria were pelleted and resuspended in RPMI medium to an optical density (OD600) of 8, aliquoted and frozen at −80° C. Unless otherwise indicated, Massilia timonae was grown in RPMI 1640 medium supplemented with 10% FBS. Typically, medium was inoculated with Massilia timonae from frozen stocks to an OD600 of 0.01. After 48 hours at 37° C., the culture was centrifuged at 3200 g to separate bacteria from the culture medium. Bacteria were resuspended in fresh medium to an OD600 of 8 and frozen to be used as references and stock cultures. The supernatant was then centrifuged at 10,000 g for 20 minutes and sterilized by passage through a 0.2 μm PVDF filter with low protein binding ability. HRF activity was determined by its ability to reactivate latent HIV-1 infection in CA5 cells. Only supernatants of which 6 μl reactivated infection in at least 60% of CA5 cells were used to study HRF properties.
Flow cytometry. Infection levels in the cell cultures were monitored by flow cytometric (FCM) analysis of GFP expression. FCM analysis was performed on a GUAVA EasyCyte (GUAVA Technologies, Inc.; Millipore; Billerica, Mass.) and a BD FACSCalibur or a LSRII (Becton & Dickinson; Franklin Lakes, N.J.). Cell sorting experiments were performed using a FACSAria™ Flow Cytometer (Becton&Dickinson). Data analysis was performed using either CellQuest (Becton&Dickinson) or GUAVA Express (GUAVA Technologies, Inc.).
To identify the optimal concentration of dactinomycin, CA5 T cells were pretreated with increasing concentrations of dactinomycin (0.0001 and 1 μg/ml), and then left untreated or stimulated with a sub-optimal concentration of HRF or TNF-α. Representative results for stimulation with HRF are depicted in FIG. 3. The chosen HRF concentration has only minimal HIV-1 reactivating effect by itself (15% reactivation over background). Twenty four hours after activator addition, levels of HIV-1 reactivation were determined as the percentage of GFP-positive cells using flow cytometric analysis, which allowed for the simultaneous determination of cell viability. […] Optimal pretreatment time was 18 hours. Maximum reactivation effects were seen 48 hours after stimulation.

[2] = test system: latently HIV-1 infected CA5 T cells
[3] = test system: latently HIV-1 infected J89GFP T cells; test: HIV-1 reactivation / priming in latently HIV-1 infected J89GFP T cells (GFP, flow cytometry, HTS); details: 10 ng/ml PMA; three J89GFP populations
Procedure: Flow cytometry. Infection levels in the cell cultures were monitored by flow cytometric (FCM) analysis of GFP expression. […] Cell sorting experiments were performed using a FACSAria™ Flow Cytometer (Becton&Dickinson). Data analysis was performed using either CellQuest (Becton&Dickinson) or GUAVA Express (GUAVA Technologies, Inc.).

HIV-1 LTR = test: Tat-independent activation of integrated LTR-GFP construct in NOMI reporter T cells; details: 24 hours
Procedure: (§2) FIGS. 6A-6C show HRF triggers suboptimal functional induction of NF-κB dependent gene expression. […] The HIV-1 reactivating kinetics were determined by stimulating CA5 T cells with optimal concentrations of HRF, phorbol 12-myristate 13-acetate (PMA) and tumor necrosis factor-α (TNF-α) and analyzing HIV-1 reactivation as a function of EGFP-expression over a period of 48 hours. Data for all agents are depicted as the percentage of EGFP-positive cells in the total cell population. […] To test the ability of HRF to mediate Tat-independent activation of the HIV-1 LTR, NOMI cells (HIV-1 reporter cell line with an integrated LTR-EGFP construct) were stimulated with increasing concentrations of PMA (0.01-10 ng/ml), TNF-α (0.003-30 μg/ml) and HRF supernatant (0.3-100 μl). The level of LTR-induction was then measured as EGFP-expression detectable after 24 hours as determined by flow cytometric analysis. Arrows indicate the concentrations at which the respective stimulus would have triggered full HIV-1 reactivation in the latently HIV-1 infected CA5 T cell line. […] 293T cells were transfected with several NF-κB dependent promoter constructs and then stimulated with either TNF-α (10 μg/ml) or HRF (25 μl). Promoter induction was measured as total EGFP expression. (NF-κB:pNF-κB-d2EGFP; LTR:HIV-1 LTR-GFP; IL-8:pIL-8 GFP; TNF:human TNF-GFP; MSCV:murine stem cell virus LTR driven GFP; no NF-κB responsive elements).
As the NF-κB pathway has been recognized as vital to HIV-1 activation, the ability of HRF to trigger NF-κB activation was investigated. It was initially determined that HRF had the ability to stimulate Tat independent activation of an integrated LTR-GFP construct in NOMI reporter T cells.

[4] = test system: chronically actively infected T cell lines (JNLG#35 and JNLG#44); test: Active HIV-1 transcription in chronically actively infected T cell lines JNLG#35 and JNLG#44 (GFP MCF); details: 48 hours
Procedure: Changes in HIV-1 transcription levels were determined after 48 hours by measuring GFP mean channel fluorescence intensity (GFP MCF). GFP MCF was plotted over the drug concentration for dactinomycin (FIG. 12A), the DNA intercalators daunorubicin (DM) (FIG. 12B) and rebeccamycin (RM) (FIG. 12C), as well as the transcription inhibitors ICRF-193 (FIG. 12D), DRB (FIG. 12E) and α-amanitin (FIG. 12F). The size of symbols indicates the respective cell viability in the sample (size range adjusted to 5-95%).
For this purpose, each of the compounds was titrated over a relevant range of concentrations on two chronically actively infected T cell lines (JNLG#35 and JNLG#44). These clonal cell lines are infected with a GFP-reporter virus. Forty eight hours after addition of the compounds, the effect of each compound on HIV-1 transcription was determined by flow cytometric analysis quantifying GFP mean channel fluorescence intensity (MCF).

[5] = test system: NF-κB dependent promoters in 293T cells; test: NF-κB dependent promoter constructs transfected into 293T cells (EGFP expression)
Procedure: as §2
The utilized EGFP reporter virus HIV-1 NLENG1-IRES has been described elsewhere (Kutsch et al., J. Virol. 76:8776-86 (2002); Levy et al., Proc. Natl. Acad. Sci. USA 101:4204-9 (2004)). The reporter plasmid pNF-κB-d2EGFP was purchased from Clontech (Mountain View, Calif.). The LTR-GFP construct and the IL-8 reporter construct have been described earlier (Choi et al., Mol. Cell. Biol. 22:724-36 (2002)). The TNF-promoter construct was generated by cloning the human TNF-α promoter element defined by primer pair 5′-BglII; 5′-[…] […]-3′ (SEQ ID NO:2) and 3′-AgeI; 5′-[…] […]-3′ (SEQ ID NO:3) into pd2EGFP (Clontech). MSCV-GFP was generated by cloning the EGFP-gene into retroviral pMSCV-puro vector (Clontech).

[6] = test system: latently HIV-1 infected reporter T cell lines; details: four latently infected reporter T cell lines; culture supernatant
Procedure: FIGS. 1A and 1B show culture supernatants from Massilia timonae reactivate latent HIV-1 infection. […] Untreated control cells and HRF-treated cells were subjected to flow cytometric analysis to determine enhanced green fluorescent protein (EGFP) expression as a direct and quantitative marker of HIV-1 expression 24 hours post stimulation. FSC/SSC dot plots are represented to evaluate cell viability as a function of changes in the FSC (cell size)-SSC (granularity) phenotype of the cells. FIG. 1B is a histogram showing the reproducibility of the observed HIV-1 reactivation. Three independent preparations of HRF (batches HRF1-3) on four different latently infected T cell lines (5F3, 8E12, CA5 and 12D4) were tested. The percentage of EGFP positive cells following stimulation is depicted in the histogram. Cell culture supernatants of Pseudomonas aeruginosa cultures, grown under similar conditions, were used as specificity controls.
as §1

[7] = test system: latently HIV-1 infected monocytic THP89GFP cells; test: HIV-1 reactivation in latently infected monocytic THP89GFP cells

For CC[C@H](C)[C@@H]1NC(=O)CNC(=O)[C@@H]2Cc3c([nH]c4cc(O)ccc34)[S+]([O-])C[C@@H](NC(=O)CNC1=O)C(=O)N[C@@H](CC(N)=O)C(=O)N1C[C@H](O)C[C@H]1C(=O)N[C@@H]([C@@H](C)[C@@H](O)CO)C(=O)N2 (stereo in doubt) [α-amanitin], the “priming effect on HIV-1 reactivation by sub-optimal dose of HRF” value (shortened to “priming effect on HIV-1 reactivation”) [1] was “None of the inhibitors exerted a priming effect”, the “priming effect on HIV-1 reactivation” value ([1]; listed as α-aminitin) was “did not exhibit any priming effect” and the “effect of higher concentrations on HIV-1 reactivation triggered by HRF or TNF-α” value [1] was “inhibit HIV-1 reactivation”.

For OC[C@H]1O[C@@H](n2cnc3cc(Cl)c(Cl)cc32)[C@H](O)[C@@H]1O [DRB, 5,6 dichloro-beta-D-ribofuranosylbenzimidazole], the “effect of higher concentrations on HIV-1 reactivation triggered by HRF or TNF-α” value [1] was “inhibit HIV-1 reactivation”.

In the case of CC(=O)NCCCCCCNC(C)=O [HMBA, Hexamethylene bisacetamide], the “optimal concentration as HIV-1 priming agent prior to onset of drug mediated toxicities” value [1] is reported as 3 to 10 mM, the “HIV-1 reactivation (cells)” value ([2]; 3 mM) is reported as 15% and the “HIV-1 reactivation (cells)” value ([2]; 9 mM) is reported as 35%. For the same compound, the compound toxicity ([2]; 9 mM) was “onset of compound toxicity”, the HIV-1 reactivation levels ([2]; HMBA alone, overall) was < 40% and the reactivation ([2]; combination of HMBA and TNF-α) was 81%. The reactivation ([2]; optimal dose of HMBA alone) was 27% and the “priming for full reactivation by sub-optimal TNF-α” value ([2]; sub-toxic concentrations) was “relatively potent at priming latent HIV-1 infection”.

With CC(C)C[C@@H](C=O)NC(=O)[C@H](CC(C)C)NC(=O)[C@H](CC(C)C)NC(=O)OCc1ccccc1 [MG132] (Cbz-Leu-Leu-Leu-aldehyde) the “priming effect on HIV-1 reactivation” value [1] was “did not exhibit any priming effect”.

For CCCCCCCCCCCCCC(=O)O[C@@H]1[C@@H](C)[C@@]2(O)[C@@H](C=C(CO)C[C@]3(O)C(=O)C(C)=C[C@@H]23)[C@@H]2C(C)(C)[C@]12OC(C)=O [PMA, phorbol 12-myristate 13-acetate], the “Maximum achievable HIV-1 reactivation levels” value [3] was 90±3% and the “Tat-independent activation of integrated LTR-GFP construct (GFP expression)” value (HIV-1 LTR) was “stimulated Tat-independent activation”.

In the case of C=C(c1ccc(C(=O)O)cc1)c1cc2c(cc1C)C(C)(C)CCC2(C)C [bexarotene], the “effect with bryostatin on latent HIV-1 infection” value ([2]; bexarotene overnight pretreatment, CA5 T cells) is reported as “synergistic effect” and the “priming of latent HIV-1 infection for reactivation by a second stimulus” value ([2]; pretreatment 2 hours or overnight) is reported as “primed latent HIV-1 infection for reactivation by a second stimulus in a synergistic manner”.

With CC[C@@]1(O)C(=O)OCc2c1cc1n(c2=O)Cc2cc3ccccc3nc2-1 [camptothecin] the “priming effect on HIV-1 reactivation” value [1] was “None of the inhibitors exerted a priming effect”.

With COc1cccc2c1C(=O)c1c(O)c3c(c(O)c1C2=O)C[C@@](O)(C(C)=O)C[C@@H]3O[C@H]1C[C@H](N)[C@H](O)[C@H](C)O1 [daunorubicin] the “priming effect on HIV-1 reactivation” value [1] was “not reproduced”, the “priming effect on HIV-1 reactivation” value ([1]; listed as Dauno) was “did not exhibit any priming effect” and the “effect on active HIV-1 infection / transcription (GFP MCF)” value [4] was “boosted active HIV-1 transcription”.

In the case of O=C1[O][Pt]2([NH][C@@H]3CCCC[C@H]3[NH]2)[O]C1=O [oxaliplatin], the “priming effect on HIV-1 reactivation” value [1] is reported as “not reproduced”.

CC(=O)O[C@@]12C[C@@H](C)[C@@]3(O)[C@@H](C=C(CO)C[C@]4(O)C(=O)C(C)=C[C@@H]34)[C@@H]1C2(C)C [prostratin] was tested, and the interaction with bexarotene [2] was “interact with bexarotene to reactivate latent HIV-1 infection”.

For CO[C@H]1[C@H](O)[C@@H](O)[C@H](n2c3c(Cl)cccc3c3c4c(c5c6cccc(Cl)c6[nH]c5c32)C(=O)NC4=O)O[C@@H]1CO [rebeccamycin], the “priming effect on HIV-1 reactivation” value [1] was “not reproduced” and the “effect on active HIV-1 infection / transcription (GFP MCF)” value [4] was “boosted active HIV-1 transcription”.

In the case of TNF-α, the reactivation ([1]; sub-optimal dose of TNF-α alone) is reported as 32%, the “Tat-independent activation of integrated LTR-GFP construct (GFP expression)” value (HIV-1 LTR) is reported as “stimulated Tat-independent activation” and the “GFP expression driven by NF-κB responsive promoter constructs (IL-8, TNF-α, HIV-1 LTR, three consensus NF-κB sites)” value [5] is reported as “efficiently induced”. For the same compound, the “GFP expression of construct under control of murine stem cell virus LTR (no NF-κB responsive element)” value [5] was “Neither TNF-α nor HRF influenced GFP expression”.

In the case of lipopolysaccharide, the HIV-1 reactivation [6] is reported as “only reactivated HIV-1 infection in the latently HIV-1 infected monocytic THP89GFP cells” and the HIV-1 reactivation [7] is reported as “reactivated HIV-1 infection”.
